In patent publication US20030220524A1, “Sulfur containing compounds” (priority 2000, published 2003):

How the values were obtained:
KK leukemic cell line = test: TUNEL, flow cytometry; format: cell-based, human; conditions: 48 h
Method: (§1) Adherent cell lines were plated at 35×10^4 cells/60 cm^2 dish the day before exposure to compound. Suspension cells were seeded at 25×10^4 cells/mL in a 6 well dish (Falcon) the day of exposure to compound. Mononucleated, T-cell depleted normal bone marrow cells were seeded at 50×10^4 cells/mL in a 6 well dish the day of exposure to compound. Cells were exposed to solvent control or approximate MTT50 and MTT30 concentrations of the compound. After 48 h of exposure to the compound, cells were harvested and fixed with a final concentration of 4% formaldehyde. Fixed cells were stored at −20° C. in 70% ethanol for no more than 5 days. Approximately 10^5 cells were pelleted and labeled with 0.02 mM Biotin-dUTP and 12.5 U TdT enzyme in a 1× reaction buffer (200 mM potassium cacodylate, 25 mM Tris-HCl, 25 μg/mL bovine serum albumin, pH 6.6), 2.5 mM CoCl2 and 0.01 mM dTTP (Roche Molecular Biochemicals, Laval, QC, Canada) for 45 min at 37° C. Samples were washed and incubated in 200 μL of 1:1000 fluorescein isothiocyanate (FITC)-conjugated avidin (Sigma) in 4×SSC, 5% skim milk powder and 0.05% Tween-20 (Sigma). Following 1 h of mixing at room temperature, the samples were washed and resuspended in 500 μL of D-PBS containing 2.5 μg/mL DNase-free RNase (Boehringer Mannheim) and 10 μg/mL PI. Following a 30 min incubation at room temperature, cells were analyzed using a XL-MCL flow cytometer (Coulter Corporation, Miami, Fla.) and a FACScalibar cytometer (Becton Dickinson, San Jose, Calif.). Profiles shown are representative of one experiment.
as §1, with “? s” for “Cells”, “appr ? nate” for “approximate”, “of” for “of the”, “Pl.” for “PI.”

NB-4 leukemic cell line = test: Fixed propidium iodide staining, flow cytometry; format: cell-based, human; conditions: 48 h

Compound | % TUNEL +ve (KK leukemic cell line; dose 50 uM) [%] | % TUNEL +ve (KK leukemic cell line; dose 100 uM) [%] | % pre-G1 (Fixed PI) (NB-4 leukemic cell line; NB-4, dose 50 uM) [%] | % pre-G1 (Fixed PI) (NB-4 leukemic cell line; NB-4, dose 150 uM) [%] | % pre-G1 (Fixed PI) (NB-4 leukemic cell line; cell line printed NBA, dose 20 uM) [%] | % pre-G1 (Fixed PI) (NB-4 leukemic cell line; cell line printed NBA, dose 40 uM) [%] | % TUNEL +ve (KK leukemic cell line; dose 25 uM) [%]
CSSCC(=O)c1ccccc1 [Compound P, phenacyl methyl disulphide] | 47 | 78 | 18 | 75 |  |  | 
CSSc1ccc([N+](=O)[O-])cc1 [M, methyl p-nitrophenyl disulphide] |  |  |  |  | 16 | 60 | 
CCC(=O)OCSSc1ccccc1 [Compound Q, 1-phenyl-1,2-dithiapropyl propionate] | 61 |  |  |  |  |  | 43
